Experimental data as given in publication PMC8347709 (International Journal of Molecular Sciences, 2021).

Target: T1, hCB2R (Homo sapiens, UniProt P34972)
Experiment: not given
Conditions: HEK-293 membranes, [3H]CP-55,940; cited from earlier work

T1 sequence (P34972 whole entry): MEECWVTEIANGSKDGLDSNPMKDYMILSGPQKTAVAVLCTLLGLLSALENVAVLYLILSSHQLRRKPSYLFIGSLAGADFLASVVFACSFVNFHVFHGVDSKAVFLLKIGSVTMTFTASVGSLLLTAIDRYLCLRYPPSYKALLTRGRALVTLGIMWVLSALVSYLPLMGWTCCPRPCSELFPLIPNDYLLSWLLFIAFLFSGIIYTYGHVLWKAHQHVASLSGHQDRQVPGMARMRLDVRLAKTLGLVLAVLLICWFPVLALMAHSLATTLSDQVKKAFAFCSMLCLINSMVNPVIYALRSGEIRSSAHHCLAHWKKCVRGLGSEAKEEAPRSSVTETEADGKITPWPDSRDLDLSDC

In the case of `CC1CCC(NC(=O)c2cc3cccnc3n(CCCCF)c2=O)CC1` (stereo not shown) [compound 5, 1-(4-Fluorbutyl)-N-(4-methyl)-2-oxo-1,2-dihydro-1,8-naphthyridine-3-carboxamide], the Ki is listed as 1.4 nM.

Same assay, conditions: diastereomeric mixture; published value; cited from earlier work

For `CC1CCC(NC(=O)c2cc3cccnc3n(CCCCF)c2=O)CC1` (stereo not shown) [compound 5, 1-(4-Fluorbutyl)-N-(4-methyl)-2-oxo-1,2-dihydro-1,8-naphthyridine-3-carboxamide], the Ki is given as 1.3 nM.

Target: CB2
Experiment: not given
Set-up: method as in PMID 29921889, PMID 33379862
Conditions: Figure 1; cited from earlier work

Compared with `Cc1s/c(=N\C(=O)C2C(C)(C)C2(C)C)n(CCO[11CH3])c1C` [[^11C]A-836339], `Cc1s/c(=N\C(=O)C2C(C)(C)C2(C)C)n(CCOCC[18F])c1C` [[^18F]FC024] is 7-fold lower in Ki: 0.7 nM for the first, 0.1 nM for the second.

Going from `CCCCCn1cc(C(=O)NC23CC4CC(CC(C4)C2)C3)c(=O)c2cccc(O[11CH3])c21` [[^11C]KD2] to `CCOCCn1cc(C(=O)NC23CC4CC(CC(C4)C2)C3)c(=O)c2cccc(O[11CH3])c21` [[^11C]RS-016], the Ki falls from 1.7 nM to 0.7 nM (2.4-fold).

Compared with `[11CH3]Oc1ccc2ncc(NCCCc3nc(-c4ccc(F)cc4Cl)no3)cc2c1` [[^11C]MA2], `Fc1ccc(-c2noc(CCCNc3cnc4ccc(OCC[18F])cc4c3)n2)c(Cl)c1` [[^18F]MA3] is 110-fold lower in Ki: 87 nM for the first, 0.8 nM for the second. The second binds more tightly here.

First: CCCCOc1c(O[11CH3])ccc2cc(C(=O)NC3CCCCC3)c(=O)[nH]c12 [[^11C]NE40]
Second: CCCCOc1c(OCC[18F])ccc2cc(C(=O)NC3CCCCC3)c(=O)[nH]c12 [[^18F]1]
The Ki of the first is 3.8-fold lower: 9.6 nM for the first, 36 nM for the second.

First: CCOC(=O)C(CC)(CC)NC(=O)c1ccc(N2CC(O[11CH3])C2)c(OCC2CC2)n1 [[^11C]RSR-056]
Second: CCC(CC)(NC(=O)c1ccc(N2CC(OC)C2)c(OCC2CC2)n1)C(=O)OCCC[18F] [[^18F]2]
The Ki of the first is 2.4-fold lower: 2.5 nM for the first, 6 nM for the second. The first binds more tightly here.

`COc1cccc2c(=O)c(C(=O)NC34CC5CC(CC(C5)C3)C4)cn(CCOCCCC[18F])c12` [[^18F]AH-040] and `COc1cccc2c(=O)c(C(=O)NC34CC5CC(CC(C5)C3)C4)cn(CCOCCC[18F])c12` [[^18F]RS-126] are within 1.5-fold of each other in Ki: 0.9 nM for the first, 1.2 nM for the second.

Compared with `COc1cccc2c(=O)c(C(=O)NC34CC5CC(CC(C5)C3)C4)cn(CCCOCCC[18F])c12` [[^18F]AH-043], `CCOCCn1cc(C(=O)NC23CC4CC(CC(C4)C2)C3)c(=O)c2cccc(OCC[18F])c21` [[^18F]RS-122] is 11-fold higher in Ki: 6.3 nM for the first, 72 nM for the second.

Going from `Cc1s/c(=N\C(=O)C2C(C)(C)C2(C)C)n(CCCC[18F])c1C` [[^18F]JHU94620] to `[2H]C([2H])([18F])C([2H])([2H])C([2H])([2H])OC(=O)C(CC)(CC)NC(=O)c1ccc(N2CC(OC)C2)c(OCC2CC2)n1` [[^18F]RoSMA-18-d6], the Ki rises from 0.4 nM to 6 nM (15-fold). The first binds more tightly here.

Target: T2, CB2R in rat spleen tissue (Rattus norvegicus, UniProt Q9QZN9)
T2 construct: from tissue; host or cells: rat spleen cryosections (female SPRD rat)
T2 sequence (Q9QZN9 1-360): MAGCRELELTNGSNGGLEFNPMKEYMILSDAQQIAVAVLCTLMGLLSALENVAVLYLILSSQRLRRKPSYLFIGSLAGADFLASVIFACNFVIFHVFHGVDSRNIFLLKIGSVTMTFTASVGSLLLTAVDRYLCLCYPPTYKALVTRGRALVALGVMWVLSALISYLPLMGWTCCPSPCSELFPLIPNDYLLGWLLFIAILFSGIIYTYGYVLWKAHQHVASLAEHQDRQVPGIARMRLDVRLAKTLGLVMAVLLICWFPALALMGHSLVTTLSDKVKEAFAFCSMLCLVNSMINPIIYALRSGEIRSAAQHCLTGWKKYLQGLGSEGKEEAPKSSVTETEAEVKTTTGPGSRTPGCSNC
Experiment: not given
Set-up: method as in PMID 27713686
Conditions: previously reported; cited from earlier work

In the case of `Fc1ccc(-c2noc(CCCNc3cnc4ccc(OCC[18F])cc4c3)n2)c(Cl)c1` [[^18F]MA3], the “visualisation of CB2 receptors in rodent spleen tissue” value is given as “inability to visualise CB2 receptors in rodent spleen tissue”.

System: not given
Experiment: not given
Set-up: method as in PMID 30342565, PMID 2173751
Conditions: cited from earlier work

For (−)-Δ9-trans-tetrahydrocannabinol [THC], the LogD7.4 is listed as greater than 7.

Target: T1, hCB2R
Experiment: competitive radioligand displacement with [3H]WIN55212-2 on hCB2-CHO membrane preparations
Type: binding
Set-up: host or cells: CHO cells, stably transfected
Conditions: hCB2-CHO membranes, read-out: Ki(hCB2R)
Text: In brief, membrane preparations obtained from CHO cell lines stably transfected with either human CB1 (hCB1-CHO; obtained from Euroscreen, Gosselies, Belgium) or human CB2 (hCB2-CHO; obtained from Paul L. Prather, Department of Pharmacology and Toxicology, College of Medicine, University of Arkansas for Medical Sciences, Fayetteville, AR, USA) were used along with [^3H]SR141716A (1554 GBq/mmol; PerkinElmer Life and Analytical Sciences, Rodgau, Germany) and [^3H]WIN55212-2 (6438 GBq/mmol; PerkinElmer Life and Analytical Sciences, Rodgau, Germany), resp., as target-specific radioligands. The incubations were performed in 50 mM TRIS-HCl, pH 7.4, supplemented with 0.1% bovine serum albumin (BSA), 5 mM MgCl2, and 1 mM EDTA for 90 min at room temperature. Various concentrations of test compounds were administered, and the non-specific binding was determined in the presence of 10 μM 56. The values of bound activity were used to determine affinity (Ki) values using non-linear regression analysis (GraphPad Prism 2.01, v9, San Diego, CA, USA) and based on the KD values of [^3H]56 determined by saturation experiments [54].
Human CB2 receptors were expressed in CHO cells, and affinities were determined by competitive radioligand displacement experiments using [^3H]WIN552122. […]

Going from `C[C@H]1CC[C@@H](NC(=O)c2cc3cccnc3n(CCCCF)c2=O)CC1` [cis-5] to `C[C@H]1CC[C@H](NC(=O)c2cc3cccnc3n(CCCCF)c2=O)CC1` [trans-5], the Ki rises from 6 nM to 52 nM (8.7-fold). The first binds more tightly here.
